Measured values: patent US20260297042A1, “BIARYLAMIDE DERIVATIVES AND THEIR USE AS PKMYT1 INHIBITORS” (CANCER RESEARCH TECHNOLOGY LIMITED, priority 2023, published 2026)
Blank lines part the entries; values can stand above or below the compound they belong to.

Legend:
Human PKMYT1 = molecular target: T1, Human PKMYT1 (Homo sapiens, UniProt Q99640); assay: PKMYT1 biochemical ADP-Glo enzymatic assay; conditions: ADP-Glo; 15 nM PKMYT1 kinase domain, 500 µM ATP, 60 minutes at 26° C.; banded
T1 construct: Human PKMYT1 75-362 was cloned as a TEV cleavable 6xHis fusion; 6xHis (TEV cleavable) (cleaved yes); made in house; host or cells: bacterial cells
T1 sequence (Q99640 75-362): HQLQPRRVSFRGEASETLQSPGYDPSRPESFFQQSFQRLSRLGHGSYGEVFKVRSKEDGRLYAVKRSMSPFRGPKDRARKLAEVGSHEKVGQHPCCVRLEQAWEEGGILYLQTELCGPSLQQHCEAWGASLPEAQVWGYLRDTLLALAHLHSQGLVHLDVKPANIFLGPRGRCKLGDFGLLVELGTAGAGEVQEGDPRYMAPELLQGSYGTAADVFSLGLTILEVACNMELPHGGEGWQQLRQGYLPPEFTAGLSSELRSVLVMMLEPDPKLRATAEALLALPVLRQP
Method in brief: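 Purified untagged human PKMYT1 75-362 at 15 nM final was tested in HEPES pH 7.5 with MgCl2, EGTA, Brij-35 and 1% DMSO. Intrinsic ATPase activity was measured with 500 uM ATP over 60 min at 26° C. ADP-Glo luminescence was read and IC50 fitted from 10-point, 3-fold dilution curves.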

WEE1 = molecular target: T2, WEE1 (Homo sapiens, UniProt P30291); assay: Selectivity versus WEE1 assay (ADP-Glo enzymatic assay); format: biochemical; conditions: banded
T2 construct: purchased Thermo Fisher PR7373A
Method in brief: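 WEE1 at 15 nM final in 50 mM HEPES pH 7.5, 10 mM MgCl2, 1 mM EGTA, 0.01% Brij-35, 1% DMSO; reaction started with 30 µM ATP, 60 min at 26 °C. ADP-Glo luminescence; IC50 from dose-response curves, replicates within 3-fold and r2 >0.9.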

[1] = test system: h-TERT-RPE1 TP53−/− parental cells; assay: Nuclear count cell proliferation assay, parental (wild type) h-TERT-RPE1 TP53−/− cells; format: cell-based; conditions: hTERT-RPE1, h-TERT-RPE1 TP53−/− parental (Wt), around 6 population doublings, banded, read-out: RPE Wt GI50
Method: (§1) h-TERT-RPE1 TP53−/− and CCNE1 high expressing clones (clone cell lines 7 and 15) were treated with test compounds dissolved in DMSO at serially diluted concentrations alongside a DMSO only control for around 6 population doublings time. Cells were then fixed with 4% Paraformaldehyde and the cell nuclei were stained with DAPI (Sigma D9542). Images covering each well were acquired by an Opera Phenix® High-Content Screening System (PerkinElmer). Image analysis was performed using Harmony® high-content analysis software (PerkinElmer). Data analysis was performed using Microsoft Excel® and GI50 estimates generated with GraphPad Prism v9. Percent nuclear count was compared to vehicle control wells and used to measure inhibition of proliferation.

[2] = test system: h-TERT-RPE1 TP53−/− CCNE1 high expressing clone cell line 7 (CL7); assay: Nuclear count cell proliferation assay, CCNE1 high expressing clone cell line 7 (CL7) of h-TERT-RPE1 TP53−/−; format: cell-based; conditions: banded
Method: as §1

[3] = test system: h-TERT-RPE1 TP53−/− CCNE1 high expressing clone cell line 15 (CL15); assay: Nuclear count cell proliferation assay, CCNE1 high expressing clone cell line 15 (CL15) of h-TERT-RPE1 TP53−/−; format: cell-based; conditions: banded
Method: as §1

OVCAR3 cells = assay: Cancer cell line proliferation assay, nuclear count, OVCAR3 (CCNE1-amplified); format: cell-based; conditions: banded
Method: as §1
(§2) Cancer cell lines with either normal (KYSE-30) or amplified CCNE1 expression (OVCAR3-ovarian cancer) were evaluated for their sensitivity to PKMYT1 inhibitors in a nuclear count assay as described above for h-TERT-RPE1 TP53−/− and a CCNE1 high expressing clones, taking into account the slower cell cycle division times of these lines.

KYSE-30 cells = assay: Cancer cell line proliferation assay, nuclear count, KYSE-30 (normal CCNE1); format: cell-based; conditions: Homo sapiens, normal CCNE1 expression, banded, read-out: KYSE30 GI50
Method: as §1, §2

[4] = test system: breast and ovarian cancers overexpressing CCNE1; conditions: alone or in combination with Gemcitabine; Gallo et al., 2022; cited from earlier work
[5] = test system: pancreatic PDX model with increased expression of CCNE1; conditions: alone or in combination with Gemcitabine; Gallo et al., 2022; cited from earlier work
solid tumours = conditions: clinicaltrials.gov; cited from earlier work

T2 sequence (P30291 whole entry): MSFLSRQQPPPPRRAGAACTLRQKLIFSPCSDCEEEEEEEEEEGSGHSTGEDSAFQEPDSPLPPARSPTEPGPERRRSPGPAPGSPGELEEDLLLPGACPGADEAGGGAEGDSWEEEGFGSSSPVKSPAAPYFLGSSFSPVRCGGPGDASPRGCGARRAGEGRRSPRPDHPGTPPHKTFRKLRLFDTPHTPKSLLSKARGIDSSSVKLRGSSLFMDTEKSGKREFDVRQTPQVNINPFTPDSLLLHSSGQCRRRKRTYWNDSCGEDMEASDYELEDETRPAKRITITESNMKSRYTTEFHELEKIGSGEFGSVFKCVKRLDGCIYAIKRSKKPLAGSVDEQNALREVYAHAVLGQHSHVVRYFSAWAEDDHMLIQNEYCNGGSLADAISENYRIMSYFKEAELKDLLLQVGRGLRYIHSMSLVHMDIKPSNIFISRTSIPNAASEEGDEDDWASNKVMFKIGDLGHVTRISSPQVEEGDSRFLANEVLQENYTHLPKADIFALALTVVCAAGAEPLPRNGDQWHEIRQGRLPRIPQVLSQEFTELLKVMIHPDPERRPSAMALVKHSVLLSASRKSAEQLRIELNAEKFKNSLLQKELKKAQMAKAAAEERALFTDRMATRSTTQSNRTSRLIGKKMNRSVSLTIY

IC50 (Human PKMYT1): < 50 nM
IC50 (WEE1; ADP-Glo, 15 nM WEE1, 60 minutes at 26° C.): > 11000 nM
PKMYT1 vs. WEE1 selectivity (WEE1; fold difference in selectivity for PKMYT1 over WEE1, ">N" = at least in this band but could be higher): Y (1000-5000 fold)
GI50 (OVCAR3 cells; Homo sapiens, OVCAR-3, CCNE1-amplified ovarian cancer, nuclear count): 3000 to 10000 nM
Structure (SMILES): Cc1ccc(O)c(C)c1NC(=O)c1cnc(Nc2ccn(CC(=O)N3CC(F)(F)C(F)(F)C3)n2)s1 [BAA-181, N-(3-hydroxy-2,6-dimethyl-phenyl)-2-[[1-[2-oxo-2-(3,3,4,4-tetrafluoropyrrolidin-1-yl)ethyl]pyrazol-3-yl]amino]thiazole-5-carboxamide]
GI50 [1]: 500 to 3000 nM
Selectivity Ratio Wt vs. CL7 ([2]; GI50 ratio RPE Wt vs. CL7, >N = at least in this band): X (3-<10 fold)
GI50 ([2]; hTERT-RPE1, h-TERT-RPE1 TP53−/− CCNE1 high clone CL7, nuclear count, around 6 population doublings, read-out: RPE CL7 GI50): < 500 nM
Selectivity Ratio Wt vs. CL15 ([3]; GI50 ratio RPE Wt vs. CL15, >N = at least in this band): Y (10-30 fold)
GI50 ([3]; h-TERT-RPE1 TP53−/− CCNE1 high clone CL15, nuclear count, around 6 population doublings, read-out: RPE CL15 GI50): < 500 nM
Selectivity ratio KYSE30 GI50 vs. OVCAR3 GI50 (OVCAR3 cells; GI50 ratio KYSE30 vs. OVCAR3, >N = at least in this band): >X (3-<10 fold)
GI50 (KYSE-30 cells): > 10000 nM

Structure (SMILES): Cc1cc2c(C(N)=O)c(N)n(-c3c(C)ccc(O)c3C)c2nc1C [RP-6306]
efficacy in vivo [4]: has shown efficacy in vivo
efficacy in vivo [5]: has shown efficacy in vivo

Structure (SMILES): C=CCn1c(=O)c2cnc(Nc3ccc(N4CCN(C)CC4)cc3)nc2n1-c1cccc(C(C)(C)O)n1 [adavosertib]
toxicity in clinical trials (solid tumours): presented significant toxicity
